Experimental findings from patent publication US20220249538A1, “TREATMENT AGENT FOR SEX HORMONE-INSENSITIVE GREB1-POSITIVE TUMORS” (OSAKA UNIVERSITY, priority 2019, published 2022) are described below.

Holding throughout (format): cell-based, human
Series [1] has as its system GREB1. The series can be described thus: GREB1 expression in HepG2 cells after GREB1 siRNA or GREB1 ASO (cell lysates probed with anti-GREB1 antibody). To be noted: siRNA 10 nm, lysate probing. As for the experimental part: Phosphorothioated I5-mer antisense oligonucleotides (ASOs) containing AmNA monomers were prepared (synthesized by GeneDesign (Ibaraki, Japan)). In the present specification, “hGREB1-6424-AmNA (15)” is sometimes simply referred to as “ASO-6424” or “GREB1 ASO-6424”. Similar abbreviations are used for describing other ASOs. Using RNAiMAX (Invitrogen, Carlsbad, Calif., USA), HepG2 or COLO679 cells were transfected with 10 nM of ASOs. In experiments, the cells were used from 36 to 48 hours after transfection.
Using RNAiMAX (Life Technologies/Thermo Fisher Scientific), HepG2 cells, Huh6 cells, Hep3B cells, JHH7 cells, and SKMEL28 cells were each transfected with each siRNA (10 nm). In experiments, the cells were used from 48 to 120 hours after transfection.
As reported previously, knockdown of β-catenin decreased HepG2 cell proliferation (see a of FIG. 3). […] Thus, to elucidate the role of GREB1 in HepG2 cells, knockdown of GREB1 was carried out using two different siRNAs.
Next, HepG2 cells were transfected with control ASO or each of the above-described GREB1 ASOs, cultured in a medium containing 10% FBS for 2 days, and the cell lysates were probed with anti-GREB1 antibody and anti-HSP90 antibody.

In series [2] the test system is HepG2 cells. The series can be described thus: Cell viability by propidium iodide and Hoechst33342 staining. The note with it: medium without Z-VAD, 0.1% FBS, 2 days; PI and Hoechst33342. Here is the method: Further, HepG2 cells were transfected with control siRNA or siRNAs (GREB1 #1 siRNA and GREB1 #2 siRNA), cultured in media (caspase inhibitor Z-VAD was contained in one condition, and not contained in the other condition) containing 0.1% FBS for 2 days, stained with propidium iodide (PI, […]) and Hoechst33342 (nucleus), and the cell viability was evaluated.
Further, HepG2 cells transfected with control siRNA, GREB1 siRNA (GREB1 #2 siRNA), p15 siRNA, or siRNA of GREB1 (GREB1 #2 siRNA) and siRNA of p15 in combination were cultured in media (caspase inhibitor Z-VAD was contained in one condition, and not contained in the other condition) containing 0.1% FBS for 2 days, stained with propidium iodide (PI) and Hoechst33342, and the cell viability was calculated.

The test system of series [3] is Smad2/3. The series can be described thus: Smad2/3 immunostaining and immunoprecipitation in HepG2 cells. Here is the method: HepG2 cells (100 mm diameter dish) were lysed with 400 μl of a cell lysis buffer (10 mM Tris-HCl [pH 7.4], 140 mM NaCl, 5 mM EDTA, 1% NP40, 25 mM NaF, […], and 10 mM PMSF). The resulting lysate was immunoprecipitated with anti-Smad2/3 antibody, and the immunoprecipitates were probed with predetermined antibodies.
Further, HepG2 cells transfected with control siRNA or GREB1 #2 siRNA were cultured in the presence or absence of 10 ng/mL of TGFβ for 30 minutes. The cultured cells were fixed, and immunostained with anti-Smad2/3 antibody (see c of FIG. 8). Further, cell lysates of the cultured cells were immunoprecipitated with anti-Smad2/3 antibody. Next, the resulting cell lysates (Input) and immunoprecipitates (IP) were reacted with anti-Smad4 antibody or anti-Smad2/3 antibody (see d of FIG. 8). In addition, the cell lysates of the cultured cells were reacted with anti-GREB1 antibody, anti-phosphorylated Smad2/3 (pSmad2/3) antibody, or anti-Smad2/3 antibody (see e of FIG. 8).
Lysates of HepG2 cells transfected with control siRNA or GREB1 #2 siRNA were immunoprecipitated with anti-Smad2/3 antibody. Next, the resulting cell lysates (input) and immunoprecipitates (IP) were reacted with anti-p300 antibody, anti-GREB1 antibody, or anti-Smad2/3 antibody (see e of FIG. 7). […]

For “GREB1 #2 siRNA: siRNA against human GREB1; sense 5′-CCUCCUACAAAGCAAUAUUTT-3′ (SEQ ID NO: 6), antisense SEQ ID NO: 7 (antisense AAUAUUGCUUUGUAGGAGGTT; chemistry not given here)”, the “knockdown of GREB1 (anti-GREB1 antibody)” value in series [1] was “knocked down”. In series [2], the “cell death of HepG2 cells” value is recorded as “elevated cell death”. Also, the “TGFβ-dependent nuclear transport of Smad2/3, complex formation of Smad2/3 and Smad4, phosphorylation of Smad2/3” value in series [3] (10 ng/mL TGFβ for 30 minutes) is “no effect”. Also, the “binding of Smad2/3 to p300” value in series [3] (anti-Smad2/3 immunoprecipitation) is listed as “increased”.
